Values quoted from earlier work, collected in US20220088213A1, “DRUG DELIVERY SYSTEM USING PH-DEPENDENT CELL-PENETRATING PEPTIDES, AND COMPOSITE THEREOF WITH DRUG” (priority 2019, published 2022).
Like-named read-outs stand apart in the source and are kept apart here.

Tested on: cell membrane
Conditions: cited from earlier work

Substance	cell membrane penetration (acidic pH conditions)	cell membrane penetration (neutral pH)	cell-penetrating activity (pH dependence)
GALA	penetrates a cell membrane	cannot penetrate the cell membrane	–
ATRAM (GLAGLAGLLGLEGLLGLPLGLLEGLWLGLELEGN; Penetrating Peptide)	–	–	exhibits cell-penetrating activity only at a slightly acidic pH
